Data: US11958816B1, “N′-({[(5-phenyl-1,3,4-oxadiazol-2-yl)sulfanyl]acetyl}oxy)benzenecarboximidamide as an antimicrobial compound” (KING FAISAL UNIVERSITY, priority 2023, dated 2024)

Tests used:
Assay type in all cases: cell-based
Aspergillus flavus = test: Agar plate disc-diffusion, antifungal activity (inhibition zone); settings: Sabouraud's dextrose agar, 37° C., 72 h, DMSO zone subtracted
Protocol: (§1) The agar plate disc-diffusion method was applied. […] The discs were then placed onto the surface of agar plates (nutrient agar for bacteria and Sabouraud's dextrose agar for fungi) seeded with the test organism. Each plate contained 15 mL of the agar medium, previously seeded with 0.2 mL of the broth culture of each organism pregrown for 18 hours. The plates were incubated at 37° C. for 48 h, and 72 h for fungi. The inhibition zones were measured in mm. Discs impregnated with DMSO were used as a control, and its inhibition zone was subtracted from the tested compound actual inhibition zone.

[1] = system: Chrysosporium keratinophilum; test: as above; settings: Sabouraud's dextrose agar, 37° C., 72 h, DMSO zone subtracted
Protocol: as §1

Pseudomonas aeruginosa = test: Agar plate disc-diffusion, antibacterial activity (inhibition zone); settings: nutrient agar, 37° C., 48 h, DMSO zone subtracted
Protocol: as §1

Bacillus cereus = test: as above; settings: nutrient agar, 37° C., 48 h, DMSO zone subtracted
Protocol: as §1

Escherichia coli = test: as above; settings: nutrient agar, 37° C., 48 h, DMSO zone subtracted
Protocol: as §1

Staphylococcus aureus = test: as above; settings: nutrient agar, 37° C., 48 h, DMSO zone subtracted
Protocol: as §1

[2] = A = concentration of comp. = 10,000 μL
[3] = B = concentration of comp. = 30,000 μL
[4] = C = concentration of comp. = 50,000 μL

N/C(=N\OC(=O)CSc1nnc(-c2ccccc2)o1)c1ccccc1 [Compound 3, N′-({[(5-phenyl-1,3,4-oxadiazol-2-yl)sulfanyl]acetyl}oxy)benzenecarboximidamide]
inhibition zone, Aspergillus flavus, A (Aspergillus flavus; [2]): 24 mm | inhibition zone, Aspergillus flavus, B (Aspergillus flavus; [3]): 29 mm | inhibition zone, Aspergillus flavus, C (Aspergillus flavus; [4]): 41 mm | inhibition zone, Chrysosporium keratinophilum, A [1, 2]: 23 mm | inhibition zone, Chrysosporium keratinophilum, B [1, 3]: 26 mm | inhibition zone, Chrysosporium keratinophilum, C [1, 4]: 40 mm | inhibition zone, Pseudomonas aeruginosa, A (Pseudomonas aeruginosa; [2]): 17 mm | inhibition zone, Pseudomonas aeruginosa, B (Pseudomonas aeruginosa; [3]): 24 mm | inhibition zone, Pseudomonas aeruginosa, C (Pseudomonas aeruginosa; [4]): 36 mm | inhibition zone, Bacillus Cereus, A (Bacillus cereus; [2]): 23 mm | inhibition zone, Bacillus Cereus, B (Bacillus cereus; [3]): 28 mm | inhibition zone, Bacillus Cereus, C (Bacillus cereus; [4]): 40 mm | inhibition zone, Escherichia coli, A (Escherichia coli; [2]): 25 mm | inhibition zone, Escherichia coli, B (Escherichia coli; [3]): 37 mm | inhibition zone, Escherichia coli, C (Escherichia coli; [4]): 45 mm | inhibition zone, Staphylococcus aureus, A (Staphylococcus aureus; [2]): 24 mm | inhibition zone, Staphylococcus aureus, B (Staphylococcus aureus; [3]): 28 mm | inhibition zone, Staphylococcus aureus, C (Staphylococcus aureus; [4]): 37 mm
